Ten molecules from PubChem BioAssay AID1259407 (Chemical Carcinogenesis Research Information System (CCRIS), 2018) can be followed below.

Molecules are shown by their SMILES. The source made the active and inactive calls. How the calls were made is not given here.

The subject of the data set is CCRIS mutagenicity, Ames/micronucleus/aberration tests. Nature of the data set: CCRIS mutagenicity studies.
Where [1] appears, read: Test System: AMES SALMONELLA TYPHIMURIUM, Strain/Indicator: TA98, Metabolic Activation: HAMSTER, LIVER, S-9, AROCLOR 1254 (10%), Method: PREINCUBATION
[2] abbreviates: Test System: AMES SALMONELLA TYPHIMURIUM, Strain/Indicator: TA98, Metabolic Activation: NONE, Method: PREINCUBATION
Setting [3] is: Test System: AMES SALMONELLA TYPHIMURIUM, Strain/Indicator: TA98, Metabolic Activation: RAT, LIVER, S-9, AROCLOR 1254 (10%), Method: PREINCUBATION
Where [4] appears, read: Test System: AMES SALMONELLA TYPHIMURIUM, Strain/Indicator: TA100, Metabolic Activation: HAMSTER, LIVER, S-9, AROCLOR 1254 (10%), Method: PREINCUBATION
Where [5] appears, read: Test System: AMES SALMONELLA TYPHIMURIUM, Strain/Indicator: TA100, Metabolic Activation: NONE, Method: PREINCUBATION
Setting [6] is: Test System: AMES SALMONELLA TYPHIMURIUM, Strain/Indicator: TA100, Metabolic Activation: RAT, LIVER, S-9, AROCLOR 1254 (10%), Method: PREINCUBATION
[7] abbreviates: Test System: AMES SALMONELLA TYPHIMURIUM, Strain/Indicator: TA1535, Metabolic Activation: HAMSTER, LIVER, S-9, AROCLOR 1254 (10%), Method: PREINCUBATION
Setting [8] is: Test System: AMES SALMONELLA TYPHIMURIUM, Strain/Indicator: TA1535, Metabolic Activation: NONE, Method: PREINCUBATION
The mark [9] stands for this setting: Test System: AMES SALMONELLA TYPHIMURIUM, Strain/Indicator: TA1535, Metabolic Activation: RAT, LIVER, S-9, AROCLOR 1254 (10%), Method: PREINCUBATION
Where [10] appears, read: Test System: AMES SALMONELLA TYPHIMURIUM, Strain/Indicator: TA1537, Metabolic Activation: HAMSTER, LIVER, S-9, AROCLOR 1254 (10%), Method: PREINCUBATION
Where [11] appears, read: Test System: AMES SALMONELLA TYPHIMURIUM, Strain/Indicator: TA1537, Metabolic Activation: NONE, Method: PREINCUBATION
The mark [12] stands for this setting: Test System: AMES SALMONELLA TYPHIMURIUM, Strain/Indicator: TA1537, Metabolic Activation: RAT, LIVER, S-9, AROCLOR 1254 (10%), Method: PREINCUBATION
The mark [13] stands for this setting: Test System: MOUSE LYMPHOMA, Strain/Indicator: L5178Y (TK+/TK-), Metabolic Activation: NONE, Method: SUSPENSION/PLATE.
Setting [14] is: Test System: AMES SALMONELLA TYPHIMURIUM, Strain/Indicator: TA98, Metabolic Activation: NONE, Method: STANDARD PLATE.
Where [15] appears, read: Test System: AMES SALMONELLA TYPHIMURIUM, Strain/Indicator: TA100, Metabolic Activation: NONE, Method: STANDARD PLATE.

Consider `Cc1cc2c(O)cccc2c2cc3c(cc12)C=C[C@H](O)[C@H]3O`, for which the mutagenic call (Test System: AMES SALMONELLA TYPHIMURIUM, Strain/Indicator: TA100, Metabolic Activation: RAT, LIVER, S-9, AROCLOR 1254, Method: PREINCUBATION) was “active; positive”.
With `CCCCCCC(C)COC(=O)c1ccccc1C(=O)OCC(C)CCCCCC` (stereo not given), the mutagenic call is, setting by setting: under setting [1], “inactive; negative”; under setting [2], “inactive; negative”; (Test System: AMES SALMONELLA TYPHIMURIUM, Strain/Indicator: TA98, Metabolic Activation: RAT LIVER S-9, AROCLOR, Method: PREINCUBATION) “inactive; negative”; under setting [3], “inactive; negative”; under setting [4], “inactive; negative”; under setting [5], “inactive; negative”. Besides, the mutagenic call was “inactive; negative” (Test System: AMES SALMONELLA TYPHIMURIUM, Strain/Indicator: TA100, Metabolic Activation: RAT LIVER S-9, AROCLOR, Method: PREINCUBATION); “inactive; negative” under setting [6]; “inactive; negative” under setting [7]; “inactive; negative” under setting [8]; “inactive; negative” (Test System: AMES SALMONELLA TYPHIMURIUM, Strain/Indicator: TA1535, Metabolic Activation: RAT LIVER S-9, AROCLOR, Method: PREINCUBATION); “inactive; negative” under setting [9]. The mutagenic call runs as follows: under setting [10], “inactive; negative”; under setting [11], “inactive; negative”; (Test System: AMES SALMONELLA TYPHIMURIUM, Strain/Indicator: TA1537, Metabolic Activation: RAT LIVER S-9, AROCLOR, Method: PREINCUBATION) “inactive; negative”; under setting [12], “inactive; negative”; under setting [13], “inactive; negative”; (Test System: MOUSE LYMPHOMA, Strain/Indicator: L5178Y (TK+/TK-), Metabolic Activation: RAT LIVER S-9, Method: SUSPENSION/PLATE) “inactive; negative”.
As to `CCO[Si](C)(C)OCC`, the mutagenic call under setting [14] is “inactive; negative”; the mutagenic call (Test System: AMES SALMONELLA TYPHIMURIUM, Strain/Indicator: TA98, Metabolic Activation: RAT LIVER S-9, AROCLOR 1254, Method: STANDARD PLATE) is “inactive; negative”; the mutagenic call under setting [15] was “inactive; negative”; the mutagenic call (Test System: AMES SALMONELLA TYPHIMURIUM, Strain/Indicator: TA100, Metabolic Activation: RAT LIVER S-9, AROCLOR 1254, Method: STANDARD PLATE) was “inactive; negative”; the mutagenic call (Test System: AMES SALMONELLA TYPHIMURIUM, Strain/Indicator: TA1535, Metabolic Activation: NONE, Method: STANDARD PLATE) was “inactive; negative”; the mutagenic call (Test System: AMES SALMONELLA TYPHIMURIUM, Strain/Indicator: TA1535, Metabolic Activation: RAT LIVER S-9, AROCLOR 1254, Method: STANDARD PLATE) was “inactive; negative”. Also, the mutagenic call by setting is: (Test System: AMES SALMONELLA TYPHIMURIUM, Strain/Indicator: TA1537, Metabolic Activation: NONE, Method: STANDARD PLATE) “inactive; negative”; (Test System: AMES SALMONELLA TYPHIMURIUM, Strain/Indicator: TA1537, Metabolic Activation: RAT LIVER S-9, AROCLOR 1254, Method: STANDARD PLATE) “inactive; negative”; (Test System: AMES SALMONELLA TYPHIMURIUM, Strain/Indicator: TA1538, Metabolic Activation: NONE, Method: STANDARD PLATE) “inactive; negative”; (Test System: AMES SALMONELLA TYPHIMURIUM, Strain/Indicator: TA1538, Metabolic Activation: RAT LIVER S-9, AROCLOR 1254, Method: STANDARD PLATE) “inactive; negative”; (Test System: E. COLI, Strain/Indicator: P3078 POLA, Metabolic Activation: NONE, Method: SPOT TEST) “inactive; negative”; (Test System: E. COLI, Strain/Indicator: P3078 POLA, Metabolic Activation: RAT LIVER S-9, AROCLOR 1254, Method: SPOT TEST) “inactive; negative”. In addition, the mutagenic call by setting is: (Test System: E. COLI, Strain/Indicator: W3110, Metabolic Activation: NONE, Method: SPOT TEST) “inactive; negative”; (Test System: E. COLI, Strain/Indicator: W3110, Metabolic Activation: RAT LIVER S-9, AROCLOR 1254, Method: SPOT TEST) “inactive; negative”; under setting [13], “inactive; negative”; (Test System: MOUSE LYMPHOMA, Strain/Indicator: L5178Y (TK+/TK-), Metabolic Activation: RAT, LIVER, S-9, Method: SUSPENSION/PLATE) “inactive; negative”.
`CN1CCN(c2c(F)cc3c(=O)c(C(=O)O)cn4c3c2OCN4C)CC1`: the mutagenic call reads like this: (Test System: AMES SALMONELLA TYPHIMURIUM, Strain/Indicator: TA102, Metabolic Activation: NONE, Method: STANDARD PLATE) “active; positive”; (Test System: CHINESE HAMSTER V-79, Strain/Indicator: V-79 (HPRT)/6-THIOGUANINE, Metabolic Activation: RAT, LIVER, S-9, AROCLOR 1254) “active; positive”.
With `OCC(O)CN1CCN(c2ccccc2)CC1` (stereo not given), the mutagenic call (Test System: CHINESE HAMSTER V-79, Strain/Indicator: V-79/6-THIOGUANINE, Metabolic Activation: NONE) was “inactive; negative” and the mutagenic call (Test System: CHINESE HAMSTER V-79, Strain/Indicator: V-79/6-THIOGUANINE, Metabolic Activation: S-9) is “inactive; negative”.
Turning to `O=C1c2ccccc2-c2cccc3cccc1c23`, the mutagenic call was “inactive; negative” under setting [14]; “active; positive” (Test System: AMES SALMONELLA TYPHIMURIUM, Strain/Indicator: TA98, Metabolic Activation: RAT, LIVER, S-9, AROCLOR 1254, Method: STANDARD PLATE); “active; positive” (Test System: AMES SALMONELLA TYPHIMURIUM, Strain/Indicator: TA100, Metabolic Activation: RAT, LIVER, S-9, AROCLOR 1254, Method: STANDARD PLATE).
For `Cc1cc2ccc3cc4ccccc4c4ccc(c1)c2c34`, the mutagenic call was “active; positive” (Test System: AMES SALMONELLA TYPHIMURIUM, Strain/Indicator: TA100, Metabolic Activation: RAT, INTACT HEPATOCYTES, AROCLOR 1254, Method: PREINCUBATION) and “active; positive” (Test System: AMES SALMONELLA TYPHIMURIUM, Strain/Indicator: TA100, Metabolic Activation: RAT, NADPH-FORTIFIED HOMOGENIZED HEPATOCYTES, AROCLOR 1254, Method: PREINCUBATION).
For `COc1ccc2c(c1)[C@H]1CCCC[C@@H]1[C@H]1O[C@@H]21`, the mutagenic call was “inactive; negative” under setting [14] and “inactive; negative” under setting [15].
On to `C1CCC2=NCCCN2CC1`, for which the mutagenic call was “inactive; negative” (Test System: Mouse lymphoma, Strain/Indicator: L5178Y (tk+/tk-), Metabolic Activation: None, Method: Suspension/plate) and “inactive; negative” (Test System: Mouse lymphoma, Strain/Indicator: L5178Y (tk+/tk-), Metabolic Activation: Rat, Liver, S-9, Aroclor 1254, Method: Suspension/plate).
Regarding `O=C1[O][Bi][O]c2ccccc21`, the mutagenic call under setting [1] was “inactive; negative”; the mutagenic call under setting [2] was “inactive; negative”; the mutagenic call under setting [3] was “inactive; negative”; the mutagenic call under setting [4] was “inactive; negative”; the mutagenic call under setting [5] is “inactive; negative”; the mutagenic call under setting [6] is “inactive; negative”. The mutagenic call under setting [7] is “inactive; negative”; the mutagenic call under setting [8] is “inactive; negative”; the mutagenic call under setting [9] is “inactive; negative”; the mutagenic call under setting [10] was “inactive; negative”; the mutagenic call under setting [11] was “inactive; negative”; the mutagenic call under setting [12] is “inactive; negative”.
